How the values were obtained:
[1] = biological target: T1, Serine/threonine-protein kinase Chk1 (Homo sapiens, UniProt O14757); assay: Inhibition of human recombinant CHK1 expressed in insect cells using biotinylaminohexanoyl-KKVSRSGLYRSPMPENLNRPR as substrate after 2 hrs by scintillation proximity assay
T1 sequence (O14757 whole entry): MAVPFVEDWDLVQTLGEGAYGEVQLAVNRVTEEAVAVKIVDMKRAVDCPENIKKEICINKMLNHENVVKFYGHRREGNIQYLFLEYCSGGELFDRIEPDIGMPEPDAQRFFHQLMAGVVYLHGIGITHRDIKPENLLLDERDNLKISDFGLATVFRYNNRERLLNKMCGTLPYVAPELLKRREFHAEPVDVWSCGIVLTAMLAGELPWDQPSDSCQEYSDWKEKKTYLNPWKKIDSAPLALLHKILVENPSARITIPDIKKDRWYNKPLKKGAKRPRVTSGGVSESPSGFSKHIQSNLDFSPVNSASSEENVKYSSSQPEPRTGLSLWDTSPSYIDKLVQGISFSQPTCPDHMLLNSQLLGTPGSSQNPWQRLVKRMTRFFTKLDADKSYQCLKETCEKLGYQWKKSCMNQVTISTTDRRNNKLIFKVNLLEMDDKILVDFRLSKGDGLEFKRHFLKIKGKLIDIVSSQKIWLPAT

[2] = Fraction unbound in human plasma; type: ADME, cell-free
[3] = Lipophilicity, log D of the compound; type: physicochemical; conditions: octanol/water
[4] = Clearance in nude mouse; type: ADME, organism-based; conditions: in vivo
[5] = Volume of distribution at steady state in nude mouse; type: ADME, organism-based; conditions: in vivo, read-out: Vdss
[6] = AUC in nude mouse; type: ADME, organism-based; design: concentration or dose not given beside the values; conditions: plasma
[7] = Half life in nude mouse; type: ADME, organism-based; conditions: in vivo
[8] = biological target: Serine/threonine-protein kinase Chk2 (Homo sapiens, UniProt O96017); assay: Inhibition of CHK2
Sequence of Serine/threonine-protein kinase Chk2 (O96017 whole entry): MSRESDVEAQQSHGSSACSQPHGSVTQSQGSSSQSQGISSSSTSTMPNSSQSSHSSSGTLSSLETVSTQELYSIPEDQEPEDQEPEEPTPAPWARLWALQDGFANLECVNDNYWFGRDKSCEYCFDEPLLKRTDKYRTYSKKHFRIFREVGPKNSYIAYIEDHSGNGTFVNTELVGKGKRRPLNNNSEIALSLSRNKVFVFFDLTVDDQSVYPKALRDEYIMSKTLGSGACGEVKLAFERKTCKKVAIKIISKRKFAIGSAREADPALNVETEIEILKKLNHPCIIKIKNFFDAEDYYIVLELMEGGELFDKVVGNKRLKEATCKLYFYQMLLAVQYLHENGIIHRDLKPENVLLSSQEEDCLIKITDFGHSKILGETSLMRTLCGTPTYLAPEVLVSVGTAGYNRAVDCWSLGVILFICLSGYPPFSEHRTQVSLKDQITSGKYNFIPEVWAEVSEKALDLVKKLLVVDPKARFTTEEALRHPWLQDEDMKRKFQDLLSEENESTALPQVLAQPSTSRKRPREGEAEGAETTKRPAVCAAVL

[9] = Half life in dog; type: ADME, organism-based, Canis lupus familiaris; conditions: in vivo
[10] = Clearance in dog; type: ADME, organism-based, Canis lupus familiaris; conditions: in vivo
CYP450 = CYP450 (Homo sapiens, UniProt P04798+P05177+P05181+P08684+P10632+P10635+P11509+P11712+P13584+P20813+P20815+P20853+P24462+P24903+P33260+P33261+P51589+P78329+P98187+Q02928+Q08477+Q16678+Q16696+Q5TCH4+Q6VVX0+Q7Z449+Q8TAV3+Q96SQ9+Q9HB55); assay: Inhibition of CYP450; type: ADME
[11] = Clearance in rat; type: ADME, organism-based; conditions: in vivo
[12] = Thermodynamic solubility of the compound in 0.1 M phosphate buffer at pH 7.4; type: physicochemical; conditions: read-out: Therm_solubility
[13] = Half life in rat; type: ADME, organism-based; conditions: in vivo

Row | SMILES | IC50 [1] | clearance [4] | Vd [5] | AUC [6] | half-life [7] | other results
1 | NC(=O)Nc1sc(-c2ccc(Cl)c(Cl)c2)cc1C(=O)N[C@H]1CCCNC1 | 30 nM |  |  |  |  | 
2 | NC(=O)Nc1cc(-c2ccccc2)sc1C(=O)N[C@H]1CCCNC1 | 10 nM |  |  |  |  | fraction unbound [2]: 0.32; logD [3]: 1.04
3 | Cl.NC(=O)Nc1sc(-c2ccc(F)cc2)cc1C(=O)N[C@H]1CCCNC1 |  | 81 mL/min/kg | 6.1 L/kg | 1.5 µM·h | 1.2 h | 
4 | Cl.NC(=O)Nc1cc(-c2cccc(F)c2F)sc1C(=O)N[C@H]1CCCNC1 | 20 nM | 85 mL/min/kg | 7.7 L/kg | 1.4 µM·h | 1.4 h | 
5 | N#Cc1ccc(-c2cc(NC(N)=O)c(C(=O)N[C@H]3CCCNC3)s2)cc1 | 6 nM |  |  |  |  | 
6 | NC(=O)Nc1cc(-c2cc(F)cc(F)c2)sc1C(=O)N[C@H]1CCCNC1 | 10 nM |  |  |  |  | 
7 | NC(=O)Nc1sc(-c2cc(F)cc(F)c2)cc1C(=O)N[C@H]1CCCNC1 | 12 nM |  |  |  |  | 
8 | NC(=O)Nc1cc(-c2ccccc2F)sc1C(=O)N[C@H]1CCCNC1 | 20 nM |  |  |  |  | 
9 | Cl.NC(=O)Nc1sc(-c2cccc(F)c2)cc1C(=O)N[C@H]1CCCNC1 |  | 33 mL/min/kg | 2.8 L/kg | 3.8 µM·h | 1 h | 
10 | NC(=O)Nc1sc(-c2ccc(F)cc2F)cc1C(=O)N[C@H]1CCCNC1 | 13 nM |  |  |  |  | 
11 | N#Cc1cccc(-c2cc(NC(N)=O)c(C(=O)N[C@H]3CCCNC3)s2)c1 | 7 nM |  |  |  |  | 
12 | NC(=O)Nc1cc(-c2cccc(F)c2)sc1C(=O)N[C@H]1CCCNC1 [AZD-7762] |  | 50 mL/min/kg | 3.9 L/kg | 2.5 µM·h | 1.1 h | IC50 [8]: < 10 nM; half-life [9]: 1.5 h; fraction unbound [2]: 0.26; clearance [10]: 35.7 mL/min/kg; IC50 (CYP450): > 10000 nM; logD [3]: 1.2; clearance [11]: 12.8 mL/min/kg; solubility thermodynamic [12]: > 1000 µM; half-life [13]: 5.2 h
13 | N#Cc1cccc(-c2cc(C(=O)N[C@H]3CCCNC3)c(NC(N)=O)s2)c1 | 9 nM |  |  |  |  | 
14 | Cl.NC(=O)Nc1cc(-c2ccc(F)cc2)sc1C(=O)N[C@H]1CCCNC1 | 6 nM | 86 mL/min/kg | 8.5 L/kg | 1.46 µM·h | 1.2 h | 
15 | NC(=O)Nc1cc(-c2ccc(Cl)c(Cl)c2)sc1C(=O)N[C@H]1CCCNC1 | 40 nM |  |  |  |  | 
16 | NC(=O)Nc1cc(-c2cccc(Cl)c2)sc1C(=O)N[C@H]1CCCNC1 | 8 nM |  |  |  |  | 
17 | Cl.NC(=O)Nc1sc(-c2cccc(F)c2F)cc1C(=O)N[C@H]1CCCNC1 | 11 nM | 71 mL/min/kg | 4.5 L/kg | 1.7 µM·h | 1.2 h | 
18 | NC(=O)Nc1cc(-c2ccc(F)cc2F)sc1C(=O)N[C@H]1CCCNC1 | 30 nM |  |  |  |  | 
19 | NC(=O)Nc1sc(-c2ccccc2)cc1C(=O)N[C@H]1CCCNC1 |  |  |  |  |  | fraction unbound [2]: 0.077
